Data on 13 compounds can be found in US10174044B2, “Fused pyridines as kinase inhibitors” (BRISTOL-MYERS SQUIBB COMPANY, priority 2015, dated 2019).

In general, IC50 refers to the concentration that gives 50% inhibition.

GST-Xa-hAAK1, sequence (Q2M2I8 whole entry): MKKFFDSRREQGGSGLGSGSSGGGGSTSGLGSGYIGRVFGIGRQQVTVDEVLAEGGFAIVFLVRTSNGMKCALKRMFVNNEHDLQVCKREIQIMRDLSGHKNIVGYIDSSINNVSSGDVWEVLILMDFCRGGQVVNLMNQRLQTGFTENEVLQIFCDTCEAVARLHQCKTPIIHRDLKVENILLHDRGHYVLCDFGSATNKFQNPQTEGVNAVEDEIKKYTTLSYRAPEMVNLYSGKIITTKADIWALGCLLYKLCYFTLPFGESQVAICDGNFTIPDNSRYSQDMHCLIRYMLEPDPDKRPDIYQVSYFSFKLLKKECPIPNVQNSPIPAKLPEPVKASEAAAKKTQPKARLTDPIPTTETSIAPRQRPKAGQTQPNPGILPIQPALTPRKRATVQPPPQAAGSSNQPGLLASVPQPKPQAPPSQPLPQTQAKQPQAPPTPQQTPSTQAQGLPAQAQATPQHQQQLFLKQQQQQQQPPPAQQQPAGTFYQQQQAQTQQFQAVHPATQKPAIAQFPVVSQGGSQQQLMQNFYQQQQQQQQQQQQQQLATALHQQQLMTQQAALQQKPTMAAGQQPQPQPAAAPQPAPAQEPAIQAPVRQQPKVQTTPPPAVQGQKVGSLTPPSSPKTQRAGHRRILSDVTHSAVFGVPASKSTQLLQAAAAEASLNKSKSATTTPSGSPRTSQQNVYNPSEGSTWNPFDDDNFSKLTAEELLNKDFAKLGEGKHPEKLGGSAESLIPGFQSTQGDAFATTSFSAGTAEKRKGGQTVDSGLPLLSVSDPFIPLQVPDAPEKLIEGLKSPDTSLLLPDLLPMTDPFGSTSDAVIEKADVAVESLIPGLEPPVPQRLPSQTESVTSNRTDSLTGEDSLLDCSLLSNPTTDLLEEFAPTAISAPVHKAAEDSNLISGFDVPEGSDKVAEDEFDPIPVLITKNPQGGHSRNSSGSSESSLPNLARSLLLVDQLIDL

The test has as its target GST-Xa-hAAK1 (Homo sapiens (Human), UniProt Q2M2I8). Kind of test: AAK1 Kinase Assay. To be noted: bacterially expressed GST-Xa-hAAK1 3.5 nM; ATP 22 μM; fluoresceinated peptide substrate 1.5 μM; 3 hours at room temperature. The test is classed as biochemical. The method, then: The assays were performed in U-bottom 384-well plates. […] The reactions were initiated by the combination of bacterially expressed, GST-Xa-hAAK1 with substrates and test compounds. The reactions were incubated at room temperature for 3 hours and terminated by adding 60 μl of 35 mM EDTA buffer to each sample. The reactions were analyzed on the Caliper LabChip 3000 (Caliper, Hopkinton, Mass.) by electrophoretic separation of the fluorescent substrate and phosphorylated product. […] Compounds were dissolved at 10 mM in dimethylsulfoxide (DMSO) and evaluated at eleven concentrations. IC50 values were derived by non-linear regression analysis.
Take `CC(C)C[C@](C)(N)COc1ccc2c(c1)COc1c-2ccnc1Cl` [Example 52, (S)-1-((4-chloro-6H-isochromeno[3,4-c]pyridin-8-yl)oxy)-2,4-dimethylpentan-2-amine]: the concentration for half-maximal inhibition (IC50) is 2.2 nM. To `CC(C)C[C@](C)(N)COc1ccc2c(c1)COc1cnc(N)cc1-2` [Example 53, (S)-8-((2-amino-2,4-dimethylpentyl)oxy)-6H-isochromeno[3,4-c]pyridin-2-amine] belongs 4.4 nM; to `CC(C)C[C@](C)(N)COc1ccc2c(c1)COc1cnc(NC(=O)OC(C)C)cc1-2` [Example 54, (S)-isopropyl (8-((2-amino-2,4-dimethylpentyl)oxy)-6H-isochromeno[3,4-c]pyridin-2-yl)carbamate], 2.1 nM. Then `CC(C)C[C@](C)(N)COc1ccc2c(c1)COc1cnc(NS(C)(=O)=O)cc1-2` [Example 55, (S)—N-(8-((2-amino-2,4-dimethylpentyl)oxy)-6H-isochromeno[3,4-c]pyridin-2-yl)methanesulfonamide], with 123 nM; and `CC(C)C[C@](C)(N)COc1ccc2c(c1)COc1cnc(NS(=O)(=O)C3CC3)cc1-2` [Example 56, (S)—N-(8-((2-amino-2,4-dimethylpentyl)oxy)-6H-isochromeno[3,4-c]pyridin-2-yl)cyclopropanesulfonamide], with 37 nM; and `CC(C)C[C@](C)(N)COc1ccc2c(c1)COc1cnc(F)cc1-2` [Example 57, (S)-1-((2-fluoro-6H-isochromeno[3,4-c]pyridin-8-yl)oxy)-2,4-dimethylpentan-2-amine], with 34 nM. To `COC(=O)Nc1ncc2c(c1Cl)-c1cc(F)c(OC[C@@](C)(N)CC(C)C)cc1CO2` [Example 58, (S)-methyl (8-((2-amino-2,4-dimethylpentyl)oxy)-1-chloro-9-fluoro-6H-isochromeno[3,4-c]pyridin-2-yl)carbamate] belongs 18 nM. Take `CC(C)C[C@](C)(N)COc1ccc2c(c1)COc1cnc(S(C)(=O)=O)cc1-2` [Example 59, (S)-2,4-dimethyl-1-((2-(methylsulfonyl)-6H-isochromeno[3,4-c]pyridin-8-yl)oxy)pentan-2-amine]: the half-inhibitory concentration (IC50) was found to be 184 nM.

Take `CC(C)C[C@](C)(N)COc1ccc2c(c1)COc1c-2ccnc1N` [Example 60, (S)-8-((2-amino-2,4-dimethylpentyl)oxy)-6H-isochromeno[3,4-c]pyridin-4-amine]: the IC50 amounted to 0.74 nM.

On to `CC(C)C[C@](C)(N)COc1ccc2c(c1Cl)COc1cnc(N)cc1-2` [Example 61, (S)-8-((2-amino-2,4-dimethylpentyl)oxy)-7-chloro-6H-isochromeno[3,4-c]pyridin-2-amine], for which the IC50 was found to be 0.41 nM. Then `COC(=O)Nc1cc2c(cn1)OCc1c-2ccc(OC[C@@](C)(N)CC(C)C)c1Cl` [Example 62, (S)-methyl (8-((2-amino-2,4-dimethylpentyl)oxy)-7-chloro-6H-isochromeno[3,4-c]pyridin-2-yl)carbamate], with 0.81 nM. Then `COC(=O)Nc1nc(Cl)c2c(c1Cl)-c1ccc(OC[C@@](C)(N)CC(C)C)c(Cl)c1CO2` [Example 63, (S)-methyl (8-((2-amino-2,4-dimethylpentyl)oxy)-1,4,7-trichloro-6H-isochromeno[3,4-c]pyridin-2-yl)carbamate], with 15 nM; and `COC(=O)Nc1nccc2c1OCc1cc(OC[C@@](C)(N)CC(C)C)ccc1-2` [Example 64, (S)-methyl (8-((2-amino-2,4-dimethylpentyl)oxy)-6H-isochromeno[3,4-c]pyridin-4-yl)carbamate], with 7.8 nM.
